From PMC7023232, “Polymer Cancerostatics Containing Cell-Penetrating Peptides: Internalization Efficacy Depends on Peptide Type and Spacer Length” (Pharmaceutics, 2020)
Read-outs that look alike come from different tables or passages of the source.

Legend:
Assay type in all cases: cell-based, human
[1] = tested on: HeLa cells; assay: Alamar Blue cell viability (cytotoxicity)
Protocol: Cytotoxicity of polymer–peptide conjugates was determined using Alamar Blue® cell viability reagent (Thermo Fischer Scientific, Czech Republic) in HeLa cells according to the manufacturer’s protocol. Cells were seeded into 96-well plates in 100 μL of DMEM 24 h prior to experiment at a density of 5 × 10^3 cells per well. […] […] Then the medium was replaced by 90 μL of fresh medium with 10 μL of Alamar Blue® reagent and incubated for the next 4 h in 5% CO2 at 37 °C. […] The fluorescence intensity was measured using a Synergy Neo plate reader (Bio-Tek, Prague, Czech Republic) with excitation at 550 nm and emission at 590 nm. Non-treated cells were used as a negative control and free pirarubicin as a positive control. All samples were measured in triplicate in three independent experiments. The half maximal inhibitory concentration value IC50 was expressed as a concentration of CPP ± SD and pirarubicin ± SD, respectively. […] In the case of drug bearing polymer conjugates, the concentration varied from 43.2 nM to 44.3 μM of pirarubicin.
Results were plotted as average ± standard deviation (SD). All statistical analysis was performed using GraphPad Prism 5.03. An ANOVA test was followed by Dunnett’s or Turkey’s test. A value of *** p < 0.001, ** p < 0.01, and * p < 0.05 was considered statistically significant. All IC50 (the concentrations of the CPP or drug reducing the cell viability to one half) values were obtained from calculations corresponding to fitting by logistic S-curves.

[2] = tested on: HeLa cells; assay: Flow cytometry of cellular uptake of fluorescently labeled polymer–peptide conjugates (median fluorescence intensity relative to control polymer REF); conditions: for internalization efficiency compared with the control polymer: HeLa cells, flow cytometry, concentration and temperature not stated at this place (abstract); for uptake relative to control polymer at the highest concentration: highest concentration used; for cell penetration compared with control polymer (in words): any of the concentrations used, at 4 °C and at 37 °C
Protocol: The HeLa cell line (LGC Standards, Poland) was cultured in Dulbecco’s modified Eagle medium (DMEM) supplemented with 100 U of penicillin, 100 μg⋅mL^−1 streptomycin, and 10% fetal bovine serum in 25 cm^2 flasks. Cells were cultivated in a humidified incubator at 37 °C with 5% CO2. The chemicals were purchased from Life Technologies/Gibco, Prague, Czech Republic.
The HeLa cell line was incubated with fluorescently labeled polymer–peptide conjugates for 1 h at 4 °C and 37 °C. For measurement at 4 °C, HeLa cells were harvested with 0.05% trypsin (Thermo Fisher Scientific, Czech Republic) at 37 °C for 3 min. Subsequently, cells were washed with 0.5% bovine serum albumin in phosphate buffered saline (0.01 M) (BSA/PBS), pre-cooled for 15 min and incubated with fluorescently labeled polymer–peptide conjugates in the dark for 1 h at 4 °C. After incubation, the cells were washed once with BSA/PBS, centrifuged at 1500 rpm for 3 min and re-suspended in 1 μM Sytox Blue Dead Cell Stain (Thermo Fisher Scientific, Czech Republic) to distinguish live and dead cells. For measurement at 37 °C, HeLa cells were seeded 24 h prior to the experiment on 24-well plates at a density 1.5 × 10^5 cells per well. Polymer–peptide conjugates were then added together with fresh DMEM and incubated at 37 °C in 5% CO2 and humidified atmosphere. Subsequently, cells were washed with BSA/PBS, harvested with 0.05% trypsin at 37 °C for 3 min, transferred to tubes, centrifuged at 1500 rpm for 3 min, and re-suspended in PBS/BSA containing 1 μM Sytox Blue Dead Cell Stain (Thermo Fisher Scientific, Czech Republic). All measurements were acquired using a FACSVerse™ flow cytometer (Becton Dickinson Czechia, s.r.o., Prague, Czech Republic) and analyzed by FlowJo software version 10 (Tree Star Inc., Ashland, OR, USA); the median of fluorescence intensity was determined. The concentration of polymer conjugates was adjusted to the value corresponding to a final concentration of peptide 1000 μM. This stock solution was diluted with PBS to obtain all used concentrations. […] HeLa cells without a polymer were used as a negative control. All samples were measured in duplicates in two independent experiments.
The uptake of the polymer–peptide conjugates incubated with the cells was measured using flow cytometry.

[3] = tested on: HeLa cells; assay: Laser scanning confocal microscopy of intracellular uptake and localization
Protocol: Laser scanning confocal microscopy (LSCM) was used to visualize the intracellular uptake of selected polymer conjugates. HeLa cells were seeded 24 h prior to an experiment (1.5 × 10^5 cells per well) to confocal chambers (1 μ-dishes providing a 35 mm^2 growth area with 500 μL cell culture medium) with four chambers in a 20 mm micro-well and a #1 cover glass (0.13–0.16 mm) (Bio-Port Europe, Prague, Czech Republic). Medium was replaced by fresh medium with dissolved polymer–peptide conjugates and added to confocal chamber and incubated either at 4 °C or at 37 °C for 1 h. After the incubation time, cells were washed twice with PBS and measured by confocal microscopy. Hoechst 33342 was used for visualization of cell nuclei (5 μg·mL^−1, Thermo Fischer Scientific, Czech Republic) and cell membranes were stained with CellMask™ Green (1 μg⋅mL^−1, Thermo Fisher Scientific, Czech Republic) for 1 h before imaging at 4 °C or 10 min at 37 °C. Observation of samples was performed by Olympus IX83 coupled with FV10-ASW software (Olympus, Prague, Czech Republic). The samples were scanned using the 60× oil objective Plan ApoN (1.42 numerical apertures). Dy633-labeled polymers were excited at 637 nm and emitted light was detected through a 650–750 nm filter. For the detection of Hoechst 33342 dye-stained nuclei, an excitation wavelength of 405 nm was used and emitted light was detected through a 420–500 nm filter. CellMask Green-stained cell membranes were excited at 488 nm and the emitted light was detected through a 500–600 nm filter. All samples were measured in duplicate in two independent experiments.
A confocal microscopy study was performed to support and extend the data obtained by flow cytometry. Confocal microscopy imaging was used to map localization of CPP conjugates. The polymer conjugates with the highest cell penetration activity, TAT12 and PEN12, were selected for the confocal microscopy experiments. Conjugate REF was used as a control. The polymers were incubated with HeLa cells for 1, 2, or 4 h at 4 or 37 °C.

[4] = 24 h incubation, Alamar Blue, Dy633-labeled conjugates, mean ± SD, triplicate in three independent experiments, for REF virtual CPP concentration of the same weight concentration, read-out: IC50 (concentration of the CPP reducing the cell viability to one half)
[5] = 4 °C (cells precooled 15 min), 50 μM of CPP, up to 4 h
[6] = 37 °C, 50 μM of CPP, 1, 2 or 4 h

## COc1cccc2c1C(=O)c1c(O)c3c(c(O)c1C2=O)C[C@@](O)(C(=O)CO)C[C@@H]3O[C@H]1C[C@H](N)[C@H](O[C@@H]2CCCCO2)[C@H](C)O1 [Pir, Pirarubicin, reference compound]
[1]; Homo sapiens, 24 h incubation, Alamar Blue, expressed as pirarubicin, mean ± SD, triplicate in three independent experiments, read-out: IC50 (concentration of the Pir reducing the cell viability to one half)
  IC50: 1.03 ± 0.3 µg/mL

## GRKKRRQRRR [P-T12-Pir, HPMA copolymer bearing pirarubicin via GFLG and TAT via dodeca(ethylene glycol) spacer]
[1]; 24 h incubation
  IC50 lower compared with P-Pir conjugate without any CPP: more than two
[1]; 24 h incubation, Alamar Blue, expressed as pirarubicin, mean ± SD, triplicate in three independent experiments
  IC50 (concentration of the Pir reducing the cell viability to one half): 18.3 ± 6.2 µg/mL
[1]; 24 h incubation, read-out: concentration of CPP present on the conjugate at IC50 value
  IC50: ~20.7 µM
[1]; 72 h incubation, Alamar Blue
  cytotoxicity (IC50 as pirarubicin) after longer incubation time: 11.1 ± 1.6 µg/mL

## GRKKRRQRRR [TAT4]
[2]
  internalization efficiency compared with the control polymer: about 40 times
[2]; HeLa, 4 °C, 1 h, 1 μM of CPP
  cell penetration level compared with REF: seven
[2]; HeLa, 37 °C, 1 h, 0.1 μM of CPP
  enhanced cellular uptake (relative fluorescence intensity) compared to REF: 14 times
[1]; [4]
  IC50: 95.3 ± 2.6 µM

## GRKKRRQRRR [TAT12]
[2]; HeLa, 4 °C, 1 h, 50 μM of CPP
  penetration efficacy relative to spacer-free conjugate TAT0: 2.8 times
[3]; [5]
  cellular localization / internalization by confocal microscopy (in words): partially localized even in the cytosol
[3]; [6]
  cellular localization / internalization by confocal microscopy (in words): localized in cytosol already after 1 h
  presence of the polymer in the cell nuclei (in words): negligible

## PFVYLI [PF4]
[2]; HeLa, 4 °C (precooled cells), 1 h, median fluorescence intensity ratio to REF
  increase in uptake relative to REF: up to 2 times
[2]; HeLa, 4 °C, 1 h
  uptake relative to control polymer at the highest concentration: 1.8 times
[2]; HeLa, 37 °C, 1 h
  uptake relative to control polymer at the highest concentration: 1.8 times

## RRMKWKK [PEN4]
[2]
  internalization efficiency compared with the control polymer: ~15 times
[2]; HeLa, 4 °C, 1 h
  effect of tetra(ethylene glycol) spacer on penetration compared with spacer-free PEN0 (in words): not long enough to improve the penetration
[2]; HeLa, 4 °C, 1 h, 1 and 10 μM of CPP
  uptake compared with TAT4 (in words): slightly outperformed TAT4
[2]; HeLa, 4 °C, 1 h, 25 and 50 μM of CPP
  concentration dependence of relative uptake (in words): did not exhibit any more improvement
[2]; HeLa, 37 °C, 1 h, all measured concentrations
  relative increase of fluorescence intensity compared to REF, versus TAT4 (in words): lower than in the case of TAT4
[1]; [4]
  IC50: 82.9 ± 4.8 µM

## RRMKWKK [PEN12]
[2]; HeLa, 4 °C, 1 h, 25 μM of CPP
  penetration efficacy relative to shorter analog PEN4: two
[3]; [5]
  cellular localization / internalization by confocal microscopy (in words): much less pronounced at 4 °C
[3]; [6]
  cellular localization / internalization by confocal microscopy (in words): lower cell internalization compared with TAT12

## RYIRS [RY4]
[2]; HeLa, 1 h
  cell penetration compared with control polymer (in words): do not penetrate cells better than the control polymer

## VPMLK [VP4]
[2]; HeLa, 1 h
  cell penetration compared with control polymer (in words): do not penetrate cells better than the control polymer

## YARAAARQARA [YA4]
[2]; HeLa, 1 h
  cell penetration compared with control polymer (in words): do not penetrate cells better than the control polymer
